pEC50: −log10 of the molar value.

What is called pEC50 is −log10 of the EC50, conventionally taken in molar units.

The first assay deals with T1, h FPR2 (Homo sapiens, UniProt P25090).
T1 construct: expressed in transfected cells
T1 sequence (P25090 1-351): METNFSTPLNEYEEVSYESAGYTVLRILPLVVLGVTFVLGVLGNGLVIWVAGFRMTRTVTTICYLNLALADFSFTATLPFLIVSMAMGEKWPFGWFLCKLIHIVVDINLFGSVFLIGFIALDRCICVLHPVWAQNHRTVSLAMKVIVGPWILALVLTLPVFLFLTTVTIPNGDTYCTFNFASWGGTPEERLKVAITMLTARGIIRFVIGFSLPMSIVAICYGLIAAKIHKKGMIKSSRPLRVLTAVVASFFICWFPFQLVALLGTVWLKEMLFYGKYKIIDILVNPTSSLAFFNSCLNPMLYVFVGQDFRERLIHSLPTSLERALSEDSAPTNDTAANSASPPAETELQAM
The assay is described as follows: Agonistic activity in hFPR2-Aq-CHO cells (FLIPR Calcium 5 fluorescence assay). In kind it is cell-based. The note with it: 11 point half log dilution, final assay concentration from 10µM. How it is done:
After washing, the cells are plated at 10,000 cells per well in 40 µL complete medium in a 384-well sterile clear bottom black plate and incubated in a 5% CO2 incubator at 37°C for 18 hours. Plating media is removed from each well by decanting and gentle tapping before 30 µL of 0.5X Calcium 5 dye solution (0.5X FLIPR Calcium 5 dye (Molecular devices, R8186)); HBSS; 20mM HEPES; 2.5mM Probenecid; 0.025% Pluronic F-127; pH adjusted to 7.4) is added to each well and the plate is then incubated at 37°C for 30 minutes. For the assay the plate is equilibrated at room temperature for 10 minutes before placing it in the FLIPR. Compounds are dissolved in DMSO and serially diluted over an 11 point half log (3.16 fold) dilution (2 mM to 20 nM). Compounds are then diluted 1:50 in assay buffer (HBSS; 20mM HEPES; 2.5mM Probenecid; 0.05% gelatin; 0.1% BSA; pH adjusted to 7.4) just before performing the assay. Compounds are finally added to the respective wells of the cell plate (final assay concentration 10 µM to 100 pM) using the FLIPR (e.g. FLIPR-Tetra, Molecular Devices) and fluorescence readings are captured for 5 minutes. The increase in fluorescence from the basal reading in the presence of the compounds is compared with that of the control wells (wells having no compound) to calculate the activity of the compounds. The EC50 values of the compounds can be determined using e.g. Graph pad Prism software.
Assay method for measuring agonistic activity of compounds in hFPR2-Aq-CHO cell
Cryo-vial containing 6x10^6 cells (hFPR1-Gα15-CHO or hFPR2-Aq-CHO) was thawed in a 37°C water bath. Cells were suspended in 10ml of respective complete growth media (F12(1X)HAM media (Gibco; Cat#11765); 10% HI-FBS (Gibco; Cat#10082); 0.4 mg/ml Geneticin (Gibco; Cat#10131); 0.25 mg/ml Zeocin (Invitrogen; Cat#R25001)) in a 15ml centrifuge tube. The cell viability was checked with the help of Trypan Blue dye. Upon washing the cells, those were plated in a 384-well sterile clear bottom black plate (Greiner Bioone Cat# 781091) so that, each well contained 10,000 cells in 40µl complete growth media. The plate was incubated in a 5% CO2 incubator at 37°C for 18 hours. Before assay on the next day, the cell plating media was removed from each well of the plate by decanting and gentle tapping. 30µl of 0.5X Calcium 5 dye solution (0.5X FLIPR Calcium 5 dye (Molecular devices Cat# R8186); HBSS (Invitrogen; Cat#14025); 20mM HEPES (Sigma; Cat#H0887); 2.5mM Probenecid (Sigma; Cat#P8761); 0.025% Pluronic F-127 (Sigma; Cat#P2443); pH adjusted to 7.4) was added to each well. The plate was then incubated at 37°C for 30 minutes. Following which the plate was equilibrated at room temperature for 10 minutes before placing it in a 384 well FLIPR for assay. Compounds were dissolved in DMSO and serially diluted following 11 point half log (3.16 fold) dilution with a starting concentration of 2mM (Final assay concentration 10µM). Aliquots of above mentioned each dilution was mixed with assay buffer (HBSS (Invitrogen; Cat#14025); 20mM HEPES (Sigma; Cat#H0887); 2.5mM Probenecid (Sigma; Cat#P8761); 0.05% gelatin (Sigma; Cat#G1890); 0.1% BSA (Sigma; Cat#A3059); pH adjusted to 7.4) just before performing the assay. Compounds were added to the respective wells of the assay ready cell plate with the help of the FLIPR (FLIPR Tetra) and fluorescence readings were captured for 5 minutes to measure any agonistic response of the compounds. The increase in fluorescence readings from the basal reading in presence of the compounds were compared with that of the control wells (wells having no compound) to calculate the agonistic activity of the compounds. The EC50 values of the compounds were determined using the Graph pad Prism software.
With `COc1ccc([C@@H]2CN(c3ccc(F)cc3)C(=O)C[C@H]2NC(=O)Nc2ccc(Cl)cc2)nc1` (relative stereo) [Ex-10, trans-1-(4-chlorophenyl)-3-[1-(4-fluorophenyl)-5-(5-methoxypyridin-2-yl)-2-oxopiperidin-4-yl]urea], the pEC50 was 10.30. Same read-out and setting: for `CNCC(=O)N1CC[C@@H](NC(=O)Nc2ccc(Cl)cc2)[C@H](c2ccc(OC)cn2)C1` (relative stereo) [Ex-96, trans-1-(4-chloro-phenyl)-3-[5-methoxy-1'-(2-methylamino-acetyl)-1',2',3',4',5',6'-hexahydro-[2,3']bipyridinyl-4'-yl]-urea] the value was 8.40. The same measure, in the same setting: in the case of `COc1ccc([C@@H]2CN(CC3CCC(OC)CC3)CC[C@H]2NC(=O)Nc2ccc(Cl)cc2)nc1` (relative stereo) [Ex-115, trans-1-(4-chloro-phenyl)-3-[5-methoxy-1'-(4-methoxy-cyclohexylmethyl)-1',2',3',4',5',6'-hexahydro-[2,3']bipyridinyl-4'-yl]-urea] it was 9.30. On the same count and under the same terms, for `COc1ccc([C@@H]2CN(C3CCS(=O)(=O)CC3)CC[C@H]2NC(=O)Nc2ccc(Cl)cc2)nc1` (relative stereo) [Ex-110, trans-1-(4-chlorophenyl)-3-(1-(1,1-dioxidotetrahydro-2H-thiopyran-4-yl)-3-(5-methoxypyridin-2-yl)piperidin-4-yl)urea] the value was 7.31; for `COc1cnc([C@@H]2CN(CCN(C)C)CC[C@H]2NC(=O)Nc2ccc(Cl)cc2)c(F)c1` (relative stereo) [Ex-213, trans-1-(4-chloro-phenyl)-3-[1'-(2-dimethylamino-ethyl)-3-fluoro-5-methoxy-1',2',3',4',5',6'-hexahydro-[2,3']bipyridinyl-4'-yl]-urea], 8.98. For the compound `COc1ccc([C@@H]2CN(Cc3ccn(C)n3)CC[C@H]2NC(=O)Nc2ccc(Cl)cc2)nc1` (single isomer, unassigned) [Ex-39, trans-1-(4-chlorophenyl)-3-[3-(5-methoxypyridin-2-yl)-1-[(1-methyl-1H-pyrazol-3-yl)methyl]piperidin-4-yl]urea], the pEC50 is 9.52. Still for that read-out and setting: for `O=C(Nc1ccc(Cl)cc1)N[C@@H]1CCN(Cc2ncccn2)C[C@H]1c1ccc(Cl)s1` (single isomer, unassigned) [Ex-47, trans-1-(4-chlorophenyl)-3-[3-(5-chlorothiophen-2-yl)-1-(pyrimidin-2-ylmethyl)piperidin-4-yl]urea] the value was 7.19; for `COc1ccc([C@@H]2CN(c3ccnc(C)n3)CC[C@H]2NC(=O)Nc2cc(C)ns2)nc1` (relative stereo) [Ex-211, trans-1-[5-methoxy-1'-(2-methyl-pyrimidin-4-yl)-1',2',3',4',5',6'-hexahydro-[2,3']bipyridinyl-4'-yl]-3-(3-methyl-isothiazol-5-yl)-urea], 8.15. Same read-out and setting: in the case of `COc1ccc([C@@H]2CN(Cc3cc(C)on3)CC[C@H]2NC(=O)Nc2ccc(Cl)cc2)nc1` (single isomer, unassigned) [Ex-30, trans-1-(4-chlorophenyl)-3-[3-(5-methoxypyridin-2-yl)-1-[(5-methyl-1,2-oxazol-3-yl)methyl]piperidin-4-yl]urea] it was 10.05.

Still in this assay, the particulars now being: agonistic response at 0.1µM.
As to `COc1ccc([C@@H]2CN(Cc3ccn(S(C)(=O)=O)n3)CC[C@H]2NC(=O)Nc2ccccc2)nc1` (relative stereo) [Ex-59, trans-3-[1-[(1-methanesulfonyl-1H-pyrazol-3-yl)methyl]-3-(5-methoxypyridin-2-yl)piperidin-4-yl]-1-phenylurea], the activation at 0.1 µM is 26%.

Turning to `O=C(Nc1ccccc1)N[C@@H]1CCN(CCO)C[C@H]1c1ccc(Cl)cn1` (relative stereo) [Ex-152, trans-1-[3-(5-Chloro-pyridin-2-yl)-1-(2-hydroxy-ethyl)-piperidin-4-yl]-3-phenyl-urea], the activation at 0.1 µM was found to be 25%. With `COc1ccc([C@@H]2CNCC[C@H]2NC(=O)Nc2ccc(Cl)cc2)nc1` (relative stereo) [Ex-169, trans-1-(4-Chlorophenyl)-3-[3-(5-methoxy-pyridin-2-yl)-piperidin-4-yl]-urea], the activation at 0.1 µM was found to be 23%.

Values taken from patent EP3789378A1, “PIPERIDINES OR PIPERIDONES SUBSTITUTED WITH UREA AND HETEROARYL” (Grünenthal GmbH, priority 2019, dated 2021).
